We go through 5 molecules from patent US20230233569A1 (Revolution Medicines, Inc., priority 2020, published 2023).

For orientation: IC50 means the point on the concentration scale where inhibition reaches its midpoint.

Holding throughout (assay): Ras-Raf disruption / FRET / MOA assay (BRAF RBD)
What all share (type): biochemical

The target in one test is KRAS G12C (Homo sapiens, UniProt P01116+P62937, G12C). Conditions: with Cyclophilin A. An outline of the steps:
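His6-K-Ras G12C-GMPPNP (12.5 nM), GST-BRAF RBD (50 nM) and tagless Cyclophilin A (25 μM) incubated 3 h at 25 °C with compound (10-point 3-fold series from 30 μM), pH 7.3 HEPES buffer. Anti-His Eu/anti-GST APC added for 1.5 h; decreased TR-FRET ratio vs DMSO gives IC50.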

The next test concerns the target NRAS Q61R (Homo sapiens, UniProt P01111+P62937, Q61R). The method, boiled down:
(§1)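 TR-FRET in 25 mM HEPES pH 7.3, 100 mM NaCl, 5 mM MgCl2, 0.1% BSA, 0.002% Tween20 with 25 μM Cyclophilin A, 12.5 nM His6-Ras-GMPPNP, 50 nM GST-BRAF RBD; compound 10-point 3-fold series from 30 μM. After 3 h at 25 °C, Eu anti-His/APC anti-GST added for 1.5 h; IC50 from ratio decrease versus DMSO.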

A further test has as its target NRAS G12C (Homo sapiens, UniProt P01111+P62937, G12C). An outline of the steps:
as §1

In the next test the target is KRAS G12D (Homo sapiens, UniProt P01116+P62937, G12D). Conditions: with Cyclophilin A. The method, boiled down:
as §1

For the next test, the target named is KRAS G13D (Homo sapiens, UniProt P01116+P62937, G13D). The following applies: with Cyclophilin A. An outline of the steps:
as §1

For the next test, the target named is KRAS G12S (Homo sapiens, UniProt P01116+P62937, G12S). Conditions: with Cyclophilin A. The method, boiled down: as §1
KRAS G12S, sequence (P01116 1-169 isoform P01116-2 G12S limits assumed): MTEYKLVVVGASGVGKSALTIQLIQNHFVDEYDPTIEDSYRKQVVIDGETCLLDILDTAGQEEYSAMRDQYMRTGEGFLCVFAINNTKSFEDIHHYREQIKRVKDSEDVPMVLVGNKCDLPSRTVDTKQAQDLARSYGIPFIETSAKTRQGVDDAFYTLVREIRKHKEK
KRAS G12S, sequence (P62937 whole entry): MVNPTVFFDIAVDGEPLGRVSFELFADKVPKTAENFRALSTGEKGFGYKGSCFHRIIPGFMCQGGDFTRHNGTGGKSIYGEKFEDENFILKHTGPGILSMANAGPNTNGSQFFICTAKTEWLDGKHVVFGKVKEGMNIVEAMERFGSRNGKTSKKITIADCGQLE
The next test addresses NRAS WT (Homo sapiens, UniProt P01111+P62937). An outline of the steps:
as §1

In another test the target is NRAS Q61K (Homo sapiens, UniProt P01111+P62937, Q61K). An outline of the steps: as §1
NRAS Q61K, sequence (P01111 whole entry Q61K): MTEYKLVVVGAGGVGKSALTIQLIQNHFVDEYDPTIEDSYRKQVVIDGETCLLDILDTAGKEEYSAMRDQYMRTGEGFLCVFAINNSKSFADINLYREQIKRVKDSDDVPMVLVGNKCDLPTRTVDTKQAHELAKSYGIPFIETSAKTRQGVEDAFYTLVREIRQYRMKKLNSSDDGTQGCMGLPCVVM
NRAS Q61K, sequence (P62937 whole entry): as the sequence (P62937 whole entry) above
In another test the target is KRAS WT (Homo sapiens, UniProt P01116+P62937). Conditions: with Cyclophilin A. An outline of the steps: as §1
KRAS WT, sequence (P01116 1-169 isoform P01116-2 limits assumed): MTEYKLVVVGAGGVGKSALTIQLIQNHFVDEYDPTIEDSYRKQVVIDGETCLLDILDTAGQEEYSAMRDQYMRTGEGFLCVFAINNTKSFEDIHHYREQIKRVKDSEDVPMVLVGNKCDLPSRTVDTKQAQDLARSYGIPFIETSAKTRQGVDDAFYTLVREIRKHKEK
KRAS WT, sequence (P62937 whole entry): as the sequence (P62937 whole entry) above
For another test, the target named is KRAS G12V (Homo sapiens, UniProt P01116+P62937, G12V). Conditions: with Cyclophilin A. An outline of the steps:
as §1

A further test addresses KRAS G13C (Homo sapiens, UniProt P01116+P62937, G13C). The following applies: with Cyclophilin A. An outline of the steps: as §1
For a further test, the target named is KRAS Q61H (Homo sapiens, UniProt P01116+P62937, Q61H). An outline of the steps:
as §1

[1] abbreviates: Ras-Raf disruption, read-out: KRAS G12C FRET data IC50.
Where [2] appears, read: NRAS Q61R, read-out: NRAS Q61R FRET data IC50.
Where [3] appears, read: NRAS G12C, read-out: NRAS G12C FRET data IC50.
Where [4] appears, read: Ras-Raf disruption, read-out: KRAS G12D FRET data IC50.
Setting [5] is: Ras-Raf disruption, read-out: KRAS G13D FRET data IC50.
Where [6] appears, read: Ras-Raf disruption, read-out: KRAS G12S FRET data IC50.
Setting [7] is: NRAS WT, read-out: NRAS WT FRET data IC50.
Where [8] appears, read: NRAS Q61K, read-out: NRAS Q61K FRET data IC50.
Where [9] appears, read: Ras-Raf disruption, read-out: KRAS WT FRET data IC50.
[10] abbreviates: Ras-Raf disruption, read-out: KRAS G12V FRET data IC50.
[11] abbreviates: Ras-Raf disruption, read-out: KRAS G13C FRET data IC50.
Setting [12] is: KRAS Q61H, read-out: KRAS Q61H FRET data IC50.
Where [13] appears, read: KRAS G12C FRET data IC50, Ras-Raf disruption.
Where [14] appears, read: NRAS G12C FRET data IC50, NRAS G12C.
Where [15] appears, read: KRAS G12D FRET data IC50, Ras-Raf disruption.
Where [16] appears, read: KRAS G13D FRET data IC50, Ras-Raf disruption.
[17] abbreviates: KRAS G12S FRET data IC50, Ras-Raf disruption.
[18] abbreviates: KRAS WT FRET data IC50, Ras-Raf disruption.
Setting [19] is: KRAS G12V FRET data IC50, Ras-Raf disruption.
Setting [20] is: KRAS G13C FRET data IC50, Ras-Raf disruption.

Read-outs that look alike come from different tables or passages of the source.

KRAS G12D, sequence (P01116 1-169 isoform P01116-2 G12D limits assumed): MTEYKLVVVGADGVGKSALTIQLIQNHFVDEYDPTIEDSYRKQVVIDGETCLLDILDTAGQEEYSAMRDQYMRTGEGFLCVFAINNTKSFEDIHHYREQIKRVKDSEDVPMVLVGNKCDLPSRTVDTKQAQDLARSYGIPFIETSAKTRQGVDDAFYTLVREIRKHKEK
KRAS G12D, sequence (P62937 whole entry): as the sequence (P62937 whole entry) above
NRAS WT, sequence (P01111 whole entry): as the sequence (P01111 whole entry Q61K) above, with K61Q counted along it
NRAS WT, sequence (P62937 whole entry): as the sequence (P62937 whole entry) above
KRAS G13D, sequence (P01116 1-169 isoform P01116-2 G13D limits assumed): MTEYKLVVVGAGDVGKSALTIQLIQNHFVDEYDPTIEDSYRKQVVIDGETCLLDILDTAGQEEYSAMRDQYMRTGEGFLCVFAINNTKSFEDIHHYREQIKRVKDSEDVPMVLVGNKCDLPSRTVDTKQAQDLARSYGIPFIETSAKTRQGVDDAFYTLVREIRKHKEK
KRAS G13D, sequence (P62937 whole entry): as the sequence (P62937 whole entry) above
KRAS G12V, sequence (P01116 1-169 isoform P01116-2 G12V limits assumed): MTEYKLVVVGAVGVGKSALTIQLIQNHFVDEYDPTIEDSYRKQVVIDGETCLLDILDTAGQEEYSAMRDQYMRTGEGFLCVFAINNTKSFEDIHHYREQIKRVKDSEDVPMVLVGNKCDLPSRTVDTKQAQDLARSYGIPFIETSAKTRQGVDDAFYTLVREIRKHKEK
KRAS G12V, sequence (P62937 whole entry): as the sequence (P62937 whole entry) above
NRAS Q61R, sequence (P01111 whole entry Q61R): as the sequence (P01111 whole entry Q61K) above, with K61R counted along it
NRAS Q61R, sequence (P62937 whole entry): as the sequence (P62937 whole entry) above
KRAS Q61H, sequence (P01116 1-169 isoform P01116-2 Q61H limits assumed): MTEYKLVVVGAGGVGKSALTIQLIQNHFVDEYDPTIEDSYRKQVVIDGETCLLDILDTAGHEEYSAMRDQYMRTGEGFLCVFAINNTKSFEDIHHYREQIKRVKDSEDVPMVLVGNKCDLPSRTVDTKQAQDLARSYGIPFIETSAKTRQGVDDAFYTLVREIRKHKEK
KRAS Q61H, sequence (P62937 whole entry): as the sequence (P62937 whole entry) above
KRAS G13C, sequence (P01116 1-169 isoform P01116-2 G13C limits assumed): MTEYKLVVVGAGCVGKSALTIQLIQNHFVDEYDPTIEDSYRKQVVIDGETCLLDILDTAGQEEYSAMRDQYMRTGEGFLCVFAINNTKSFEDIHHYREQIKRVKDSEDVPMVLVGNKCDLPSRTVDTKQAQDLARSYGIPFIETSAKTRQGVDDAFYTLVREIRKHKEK
KRAS G13C, sequence (P62937 whole entry): as the sequence (P62937 whole entry) above
KRAS G12C, sequence (P01116 1-169 isoform P01116-2 G12C limits assumed): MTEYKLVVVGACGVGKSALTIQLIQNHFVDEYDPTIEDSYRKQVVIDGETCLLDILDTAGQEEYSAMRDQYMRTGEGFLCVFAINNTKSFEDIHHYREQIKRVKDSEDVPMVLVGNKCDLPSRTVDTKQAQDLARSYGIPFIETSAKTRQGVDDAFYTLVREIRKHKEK
KRAS G12C, sequence (P62937 whole entry): as the sequence (P62937 whole entry) above
NRAS G12C, sequence (P01111 whole entry G12C): as the sequence (P01111 whole entry Q61K) above, with G12C, K61Q counted along it
NRAS G12C, sequence (P62937 whole entry): as the sequence (P62937 whole entry) above

For `CCn1c(-c2cccnc2[C@H](C)OC)c2c3cc(ccc31)-c1cc(O)cc(c1)C[C@H](NC(=O)[C@H](C(C)C)N(C)C(=O)[C@H]1C[C@@H]3N[C@@H]3C1)C(=O)N1CCC[C@H](N1)C(=O)OCC(C)(C)C2` (atropisomer, axis not shown) [Example 286], the IC50 on KRAS G12C (setting [1]) was in the range of 100 to 1000 nM; on NRAS Q61R (setting [2]), 100 to 1000 nM; on NRAS G12C (setting [3]), 100 to 1000 nM; on KRAS G12D (setting [4]), 100 to 1000 nM; on KRAS G13D (setting [5]), 10 to 100 nM; on KRAS G12S (setting [6]) it was 100 to 1000 nM. Also, the half-inhibitory concentration (IC50) is 100 to 1000 nM on NRAS WT (setting [7]); 100 to 1000 nM at NRAS Q61K (setting [8]); 100 to 1000 nM at KRAS WT (setting [9]); 100 to 1000 nM on KRAS G12V (setting [10]); 10 to 100 nM at KRAS G13C (setting [11]); 10 to 100 nM at KRAS Q61H (setting [12]).

Take `CCn1c(-c2cccnc2[C@H](C)OC)c2c3cc(ccc31)-c1cc(O)cc(c1)C[C@H](NC(=O)[C@H](C1CCCC1)N(C)C(=O)[C@@H](C)N(C)C(=O)[C@@H]1N[C@@H]1C1CC1)C(=O)N1CCC[C@H](N1)C(=O)OCC(C)(C)C2` [Example 327]: the half-inhibitory concentration (IC50) against KRAS G12C (setting [13]) is 1000 to 10000 nM; on NRAS Q61R it was more than 10000 nM; against NRAS G12C (setting [14]) it was 1000 to 10000 nM; on KRAS G12D (setting [15]) it was 1000 to 10000 nM; on KRAS G13D (setting [16]), more than 10000 nM; at KRAS G12S (setting [17]), more than 10000 nM. For the same molecule, the IC50 is more than 10000 nM on NRAS WT; more than 10000 nM at NRAS Q61K; 1000 to 10000 nM at KRAS WT (setting [18]); more than 10000 nM on KRAS G12V (setting [19]); 1000 to 10000 nM on KRAS G13C (setting [20]); 1000 to 10000 nM on KRAS Q61H.

Take `CCn1c(-c2cccnc2[C@H](C)OC)c2c3cc(ccc31)-c1cc(O)cc(c1)C[C@H](NC(=O)[C@H](C(C)C)N(C)C(=O)[C@H]1CCN(C(=O)C3OC3c3ccccc3)C1)C(=O)N1CCC[C@H](N1)C(=O)OCC(C)(C)C2` (stereo partly drawn) [Example 331]: the concentration for half-maximal inhibition (IC50) is less than 10 nM on KRAS G12C (setting [1]); 100 to 1000 nM on NRAS Q61R (setting [2]); 10 to 100 nM on NRAS G12C (setting [3]); 100 to 1000 nM at KRAS G12D (setting [4]); 100 to 1000 nM at KRAS G13D (setting [5]); 10 to 100 nM on KRAS G12S (setting [6]). Moreover, the IC50 on NRAS WT (setting [7]) was in the range of 10 to 100 nM; at NRAS Q61K (setting [8]), 100 to 1000 nM; at KRAS WT (setting [9]), 10 to 100 nM; at KRAS G12V (setting [10]) it was 10 to 100 nM; at KRAS G13C (setting [11]), 10 to 100 nM; at KRAS Q61H (setting [12]) it was 10 to 100 nM.

As to `CCn1c(-c2cccnc2[C@H](C)OC)c2c3cc(ccc31)-c1cc(O)cc(c1)C[C@H](NC(=O)[C@H](C1CCCC1)N(C)C(=O)CN(C)C(=O)[C@H]1N[C@H]1C1(F)CC1)C(=O)N1CCC[C@H](N1)C(=O)OCC(C)(C)C2` [Example 315], the IC50 against KRAS G12C (setting [13]) lay within 10 to 100 nM; on NRAS Q61R, 100 to 1000 nM; against NRAS G12C (setting [14]) it was 10 to 100 nM; against KRAS G12D (setting [15]), 10 to 100 nM; against KRAS G13D (setting [16]), 10 to 100 nM; against KRAS G12S (setting [17]), 10 to 100 nM. Besides, the half-maximal inhibitory concentration (IC50) is less than 10 nM against NRAS WT; 10 to 100 nM at NRAS Q61K; 10 to 100 nM at KRAS WT (setting [18]); 10 to 100 nM at KRAS G12V (setting [19]); 10 to 100 nM against KRAS G13C (setting [20]); 10 to 100 nM at KRAS Q61H.

On to `CCn1c(-c2cccnc2[C@H](C)OC)c2c3cc(ccc31)-c1csc(n1)C[C@H](NC(=O)[C@H](C(C)C)N(C)C(=O)N1CC[C@H](N(C)C(=O)[C@H]3CN3)C1)C(=O)N1CCC[C@H](N1)C(=O)OCC(C)(C)C2` (atropisomer, axis not shown) [Example 228], for which the concentration for half-maximal inhibition (IC50) was in the range of 100 to 1000 nM at KRAS G12C (setting [1]); 100 to 1000 nM at NRAS Q61R (setting [2]); 10 to 100 nM on NRAS G12C (setting [3]); 1000 to 10000 nM on KRAS G12D (setting [4]); 100 to 1000 nM on KRAS G13D (setting [5]); 100 to 1000 nM at KRAS G12S (setting [6]). Moreover, the IC50 on NRAS WT (setting [7]) fell in the range of 100 to 1000 nM; at NRAS Q61K (setting [8]) it was 10 to 100 nM; on KRAS WT (setting [9]) it was 100 to 1000 nM; on KRAS G12V (setting [10]), 100 to 1000 nM; on KRAS G13C (setting [11]), 100 to 1000 nM; on KRAS Q61H (setting [12]), 10 to 100 nM.
